Reference: US9884828B2, “Substituted cinnolines as inhibitors of LRRK2 kinase activity” (Imago Pharmaceuticals, Inc., priority 2011, dated 2018)
pIC50: −log10 of the molar value. Where two headings read alike, the source gives them in different places.

Molecular target: recombinant GST-LRRK2 (wild-type) (Homo sapiens (Human), UniProt Q5S007)
Experiment: LRRK2 TR-FRET peptide assay (in vitro kinase activity), wild-type
Format: biochemical
Method: Compounds as described herein (compounds of Formula I, e.g., compounds of the above Examples) are tested for their in vitro kinase activities using various LRRK2 (including LRRK2 G2019S mutant) assays. […] Serially diluted compounds (1% DMSO as co-solvent) were pre-incubated with recombinant GST-LRRK2 (wild-type, or G2019S mutant, Invitrogen) for 15 minutes at room temperature in 384-well Corning black plates. […] The inhibition of each well was calculated using the control and background readings for that plate. IC50 values were determined from dose-response curves using eight concentrations from the serial dilution of the test compounds.

[1] = 100 μM ATP, 100 nM biotin-LRRKtide substrate, 10 nM kinase, 60 minutes at room temperature

Sequence of recombinant GST-LRRK2 (wild-type) (Q5S007 whole entry): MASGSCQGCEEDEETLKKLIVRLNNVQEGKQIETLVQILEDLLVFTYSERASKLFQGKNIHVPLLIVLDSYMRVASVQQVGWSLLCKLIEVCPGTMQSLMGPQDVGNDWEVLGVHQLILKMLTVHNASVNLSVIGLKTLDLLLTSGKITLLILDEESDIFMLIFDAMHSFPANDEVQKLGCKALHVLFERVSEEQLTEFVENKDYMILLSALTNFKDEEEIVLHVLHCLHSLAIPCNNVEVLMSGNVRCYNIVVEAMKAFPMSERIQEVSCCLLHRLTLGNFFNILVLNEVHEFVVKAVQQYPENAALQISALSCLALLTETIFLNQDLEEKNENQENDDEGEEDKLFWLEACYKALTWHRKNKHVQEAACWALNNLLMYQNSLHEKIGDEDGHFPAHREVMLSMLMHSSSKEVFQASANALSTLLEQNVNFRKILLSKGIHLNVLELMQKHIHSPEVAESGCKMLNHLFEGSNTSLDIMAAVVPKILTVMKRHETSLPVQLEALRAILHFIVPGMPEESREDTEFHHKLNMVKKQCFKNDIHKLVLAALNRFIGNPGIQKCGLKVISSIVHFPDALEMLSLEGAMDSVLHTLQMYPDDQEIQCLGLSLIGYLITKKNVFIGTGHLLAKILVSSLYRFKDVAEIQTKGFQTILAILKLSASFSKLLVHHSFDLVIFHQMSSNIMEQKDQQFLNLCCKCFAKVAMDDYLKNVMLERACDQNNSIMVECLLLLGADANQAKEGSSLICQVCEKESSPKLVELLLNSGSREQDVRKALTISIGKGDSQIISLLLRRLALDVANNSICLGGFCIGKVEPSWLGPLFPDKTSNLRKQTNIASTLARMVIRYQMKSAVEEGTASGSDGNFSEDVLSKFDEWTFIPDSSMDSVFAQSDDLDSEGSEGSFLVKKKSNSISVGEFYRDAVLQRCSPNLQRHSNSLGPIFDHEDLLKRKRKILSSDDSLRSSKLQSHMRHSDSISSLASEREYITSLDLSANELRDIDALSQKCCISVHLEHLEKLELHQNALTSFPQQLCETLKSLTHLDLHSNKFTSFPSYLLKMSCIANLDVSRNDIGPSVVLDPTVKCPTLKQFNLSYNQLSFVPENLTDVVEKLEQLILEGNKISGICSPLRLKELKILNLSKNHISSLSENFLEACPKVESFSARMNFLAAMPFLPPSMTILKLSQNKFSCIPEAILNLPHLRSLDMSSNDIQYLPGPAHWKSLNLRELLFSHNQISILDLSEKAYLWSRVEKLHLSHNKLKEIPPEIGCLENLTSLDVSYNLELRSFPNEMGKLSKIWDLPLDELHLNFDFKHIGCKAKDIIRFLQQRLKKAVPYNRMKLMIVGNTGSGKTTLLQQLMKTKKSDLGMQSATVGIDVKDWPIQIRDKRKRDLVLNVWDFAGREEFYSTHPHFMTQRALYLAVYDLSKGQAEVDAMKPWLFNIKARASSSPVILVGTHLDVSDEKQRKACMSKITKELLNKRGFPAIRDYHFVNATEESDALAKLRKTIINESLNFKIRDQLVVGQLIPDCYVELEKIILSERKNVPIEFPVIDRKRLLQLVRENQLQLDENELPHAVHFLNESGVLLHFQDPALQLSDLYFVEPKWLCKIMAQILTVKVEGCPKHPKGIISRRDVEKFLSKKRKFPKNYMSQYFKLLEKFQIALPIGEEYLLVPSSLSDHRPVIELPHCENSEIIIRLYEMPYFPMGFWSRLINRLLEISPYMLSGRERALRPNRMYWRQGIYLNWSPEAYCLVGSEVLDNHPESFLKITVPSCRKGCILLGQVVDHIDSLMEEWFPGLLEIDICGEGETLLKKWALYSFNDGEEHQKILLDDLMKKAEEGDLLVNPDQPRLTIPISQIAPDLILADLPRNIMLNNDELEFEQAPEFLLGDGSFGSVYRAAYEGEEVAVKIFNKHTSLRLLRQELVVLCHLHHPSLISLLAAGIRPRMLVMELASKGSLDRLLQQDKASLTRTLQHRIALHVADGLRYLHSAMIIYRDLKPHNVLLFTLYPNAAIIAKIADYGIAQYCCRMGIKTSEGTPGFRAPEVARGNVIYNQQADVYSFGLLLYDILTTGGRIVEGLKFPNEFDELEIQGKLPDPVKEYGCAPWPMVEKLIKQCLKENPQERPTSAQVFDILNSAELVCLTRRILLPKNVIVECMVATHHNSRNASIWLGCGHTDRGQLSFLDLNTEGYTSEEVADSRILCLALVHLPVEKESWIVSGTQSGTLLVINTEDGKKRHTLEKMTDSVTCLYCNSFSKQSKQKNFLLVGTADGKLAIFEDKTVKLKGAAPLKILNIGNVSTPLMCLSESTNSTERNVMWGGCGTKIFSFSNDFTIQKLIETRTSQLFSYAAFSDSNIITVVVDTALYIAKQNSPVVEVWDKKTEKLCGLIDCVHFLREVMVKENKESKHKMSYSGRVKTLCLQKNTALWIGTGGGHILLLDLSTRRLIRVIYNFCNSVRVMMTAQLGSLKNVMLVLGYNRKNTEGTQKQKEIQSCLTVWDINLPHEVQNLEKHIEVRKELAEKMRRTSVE

Row | Structure (SMILES) | pIC50 [1] | pIC50
1 | CC(C)Nc1c(C(N)=O)nnc2cc(-c3ccccc3F)ccc12 [Compound 2-47, 7-(2-fluorophenyl)-4-(isopropylamino)cinnoline-3-carboxamide] | 6.68 | –
2 | C[C@@H](Nc1c(C(N)=O)nnc2cc(-c3cccc(S(C)(=O)=O)c3)ccc12)C1CC1 [Compound 2-111, (R)-4-(1-cyclopropylethylamino)-7-(3-(methylsulfonyl)phenyl)cinnoline-3-carboxamide] | 9.00 | –
3 | CS(=O)(=O)c1ccc(-c2ccc3c(NC4CCOCC4)c(C(N)=O)nnc3c2)cc1 [Compound 2-25, 7-(4-(methylsulfonyl)phenyl)-4-(tetrahydro-2H-pyran-4-ylamino)cinnoline-3-carboxamide] | 7.64 | –
4 | CCC(C)Sc1c(C(N)=O)nnc2cc(-c3ccc(S(C)(=O)=O)cc3)ccc12 (centres unmarked) [Compound 2-243, 4-(sec-butylthio)-7-(4-(methylsulfonyl)phenyl)cinnoline-3-carboxamide] | 4.92 | –
5 | COc1cccc(-c2ccc3c(NC(C)C)c(C(N)=O)nnc3c2)c1 [Compound 2-97, 4-(isopropylamino)-7-(3-methoxyphenyl)cinnoline-3-carboxamide] | 7.34 | –
6 | CC(C)Nc1c(C(N)=O)nnc2cc(-c3cccnc3)ccc12 [Compound 2-57, 4-(isopropylamino)-7-(pyridin-3-yl)cinnoline-3-carboxamide] | 7.48 | –
7 | CC(C)(C)c1ccc2nnc(C(N)=O)c(N)c2c1 [Compound 1-186, 4-amino-6-tert-butylcinnoline-3-carboxamide] | 5.40 | –
8 | CN1CCC(Nc2c(C(N)=O)nnc3cc(-c4ccc(S(C)(=O)=O)cc4)ccc23)CC1 [Compound 2-21, 4-(1-methylpiperidin-4-ylamino)-7-(4-(methylsulfonyl)phenyl)cinnoline-3-carboxamide] | 6.74 | –
9 | C=C(C)c1ccc2c(NC(C)C)c(C(N)=O)nnc2c1 [Compound 2-99, 4-(isopropylamino)-7-(prop-1-en-2-yl)cinnoline-3-carboxamide] | 7.12 | –
10 | C[C@@H](Nc1c(C(N)=O)nnc2cc(-c3ccn(C)c(=O)c3)ccc12)C1CC1 [Compound 2-122, (R)-4-(1-cyclopropylethylamino)-7-(1-methyl-2-oxo-1,2-dihydropyridin-4-yl)cinnoline-3-carboxamide] | 8.10 | –
11 | C[C@@H](Nc1c(C(N)=O)nnc2cc(-c3cccc4c3CC(=O)N4)ccc12)C1CC1 [Compound 2-119, (R)-4-(1-cyclopropylethylamino)-7-(2-oxoindolin-4-yl)cinnoline-3-carboxamide] | 7.74 | –
12 | C[C@@H](Nc1c(C(N)=O)nnc2cc(-c3cccc(OCC4CC4)c3)ccc12)C1CC1 [Compound 2-113, (R)-4-(1-cyclopropylethylamino)-7-(3-(cyclopropylmethoxy)phenyl)cinnoline-3-carboxamide] | 7.29 | –
13 | CS(=O)(=O)c1ccc(-c2ccc3c(NC4COC4)c(C(N)=O)nnc3c2)cc1 [Compound 2-27, 7-(4-(methylsulfonyl)phenyl)-4-(oxetan-3-ylamino)cinnoline-3-carboxamide] | 6.74 | –
14 | C[C@@H](Nc1c(C(N)=O)nnc2cc(-c3cccc4c3NC(=O)C4)ccc12)C1CC1 [Compound 2-121, (R)-4-(1-cyclopropylethylamino)-7-(2-oxoindolin-7-yl)cinnoline-3-carboxamide] | 8.70 | –
15 | CCC(CC)Nc1c(C(N)=O)nnc2cc(-c3ccncc3)ccc12 [Compound 2-134, 4-(pentan-3-ylamino)-7-(pyridin-4-yl)cinnoline-3-carboxamide] | 7.59 | –
16 | C[C@@H](Nc1c(C(N)=O)nnc2cc(-c3ccccc3Cl)ccc12)C1CC1 [Compound 2-117, (R)-7-(2-chlorophenyl)-4-(1-cyclopropylethylamino)cinnoline-3-carboxamide] | 6.34 | –
17 | CNc1c(C(N)=O)nnc2cc(-c3ccc(S(C)(=O)=O)cc3)ccc12 [Compound 2-94, 4-(methylamino)-7-(4-(methylsulfonyl)phenyl)cinnoline-3-carboxamide] | 6.92 | –
18 | CC(C)Nc1c(C(N)=O)nnc2cc(N3CCN(C)CC3)ccc12 [Compound 4-188, 4-(isopropylamino)-7-(4-methylpiperazin-1-yl)cinnoline-3-carboxamide] | – | 7.28
19 | CS(=O)(=O)c1ccc(-c2ccc3c(NC4CCC4)c(C(N)=O)nnc3c2)cc1 [Compound 2-19, 4-(cyclobutylamino)-7-(4-(methylsulfonyl)phenyl)cinnoline-3-carboxamide] | 8.00 | –
20 | CC(C)Nc1c(C(N)=O)nnc2cc(-c3ccc(N4CCOCC4)cc3)ccc12 [Compound 2-49, 4-(isopropylamino)-7-(4-morpholinophenyl)cinnoline-3-carboxamide] | 8.05 | –
21 | CC[C@@H](C)Nc1c(C(N)=O)nnc2cc(-c3ccc(S(C)(=O)=O)cc3)ccc12 [Compound 2-37, (R)-(sec-butylamino)-7-(4-(methylsulfonyl)phenyl)cinnoline-3-carboxamide] | > 8.22 | –

The next lines start with results.

Row | pIC50 [1] | Structure (SMILES) | pIC50
22 | 6.39 | CNC(=O)c1nnc2cc(-c3ccc(S(C)(=O)=O)cc3)ccc2c1NC(C)C [Compound 12-227, 4-(Isopropylamino)-N-methyl-7-(4-(methylsulfonyl)phenyl)cinnoline-3-carboxamide] | –
23 | 6.77 | CC(C)Nc1c(C(N)=O)nnc2cc(N3CCCC3=O)ccc12 [Compound 4-85, 4-(isopropylamino)-7-(2-oxopyrrolidin-1-yl)cinnoline-3-carboxamide] | –
24 | 7.20 | COc1ccc(N2CCOCC2=O)cc1-c1ccc2c(N[C@H](C)C3CC3)c(C(N)=O)nnc2c1 [Compound 9-209, (R)-4-(1-cyclopropylethylamino)-7-(2-methoxy-5-(3-oxomorpholino)phenyl)cinnoline-3-carboxamide] | –
25 | 7.51 | COc1ncccc1Nc1ccc2c(NC(C)C)c(C(N)=O)nnc2c1 [Compound 4-190, 4-(isopropylamino)-7-(2-methoxypyridin-3-ylamino)cinnoline-3-carboxamide] | –
26 | < 4.00 | CC(C)Nc1c(-c2cscn2)nnc2cc(-c3ccc(S(C)(=O)=O)cc3)ccc12 [Compound 3-70, N-isopropyl-7-(4-(methylsulfonyl)phenyl)-3-(thiazol-4-yl)cinnolin-4-amine] | –
27 | 6.55 | CC(C)Nc1c(-c2nccc(=O)[nH]2)nnc2cc(-c3ccc(S(C)(=O)=O)cc3)ccc12 [Compound 3-187, 2-(4-(isopropylamino)-7-(4-(methylsulfonyl)phenyl)cinnolin-3-yl)pyrimidin-4(3H)-one] | –
28 | 7.29 | CC(C)Nc1c(-c2ncc[nH]2)nnc2cc(-c3ccc(S(C)(=O)=O)cc3)ccc12 [Compound 13-233, 3-(1H-imidazol-2-yl)-N-isopropyl-7-(4-(methylsulfonyl)phenyl)cinnolin-4-amine] | –
29 | 6.62 | COc1cccc(Nc2ccc3c(NC(C)C)c(C(N)=O)nnc3c2)c1 [Compound 4-192, 4-(isopropylamino)-7-(3-methoxyphenylamino)cinnoline-3-carboxamide] | –
